{"source": "patent US9586993B2", "about": "“CD44v6-derived peptides for treating pancreatic cancer” (AMCURE GMBH, priority 2012, dated 2017)", "key": {"[1]": {"system": "L3.6p1 pancreatic carcinoma cells", "assay": "Human orthotopic model, L3.6p1 cells in the pancreas of nude mice", "assay_type": "in vivo, mouse", "conditions": "dose reduction experiment, 0.2 to 20 μg per injection three times per week for 3 weeks"}, "[2]": {"system": "L3.6p1 pancreatic carcinoma cells", "assay": "Human orthotopic model, L3.6p1 cells in the pancreas of nude mice", "assay_type": "in vivo, mouse", "method": "In the case of the human orthotopic model, L3.6p1 pancreatic carcinoma cells (passage 24-26) were suspended in Hank's balanced salt solution (Invitrogen, Karlsruhe, Germany) after trypsinization. The cells were injected orthotopically in the pancreas of male nude mice as described (Bruns C J et al. (1999) Neoplasia 1(1):50-62). Two groups of 15 mice each were injected i.p. 7 days later with either the human v6 peptide respectively rat control peptide (20 μg). For all experiments described and depicted herein either the rat 14mer control peptide or the human 14mer peptide were used. All experiments were then repeated with the rat 5mer control peptide or the human 5mer peptide (N-R-W-H-E, SEQ ID NO: 2). […] The injection was repeated three times per week for 21 days. Two days after the last treatment the animals were killed.\n7 μm thick paraffin sections were deparaffinized and rehydrated. For P-Met staining antigen unmasking was achieved by boiling the slides in 1 mM EDTA pH 8.0 followed by incubation for 15 minutes at a sub-boiling temperature, for CD31 staining the sections were treated with Proteinase K (8 μg/ml) for 10 min at 37° C. For immunofluorescence staining of P-Met, unspecific binding was blocked with 5% goat serum (DAKO, Glostrup, Denmark) (diluted in 1×PBS/0.3% Triton X-100) for 60 minutes. In the case of immunohistochemistry, endogenous peroxidases were at first blocked with 3% H2O2 in PBS followed by incubation with biotin blocking system (Dako, Glostrup, Denmark) and then unspecific binding was inhibited by incubation with 5% FCS in PBS. The sections were incubated with the P-Met antibody (D26, dilution 1:50 in 1×PBS/1% BSA/0.3% Triton X-100), Met antibody (C-28, dilution 1:50), GFP antibody (sc-101525, dilution 1:50) or antibody (5 μg/ml) over night or VFF18 (5 μg/ml) o/n at 4° C. After washing in PBS the sections were incubated with Alexa Fluor R 546 goat anti-rabbit (in case of immunofluorescence P-Met and Met staining, dilution 1:500) or a biotinylated secondary antibody (for immunohistochemical stainings rabbit anti-rat antibody for VFF18 and CD31, goat anti-rabbit for P-Met, cleaved Caspase-3 and cleaved Caspase-8 and rabbit anti-mouse for GFP, dilution 1:500) for 45 minutes. For DAB (3,3′-diaminobenzidine) staining the sections were treated with a streptavidin-peroxidase conjugate (Dako, Glostrup, Denmark) and developed with DAB substrate system (3,3′-diaminobenzidine; Biozol, Eching, Germany) For immunofluorescence DAPI was used for nuclear staining.\nThe three CD44v6 specific compounds (v6 5mer, PEG840-v6 5mer and PEG2000-v6 5mer of human origin) and a control peptide were applied in three concentrations (2 μg, 20 μg, 200 μg per injection) three times per week i.p. for 4 weeks. One week before start of the treatment the L3.6p1 tumor cells were orthotopically implanted into nude mice.\nAnimals were implanted orthotopically with L3.6p1 cells. Tumor growth was allowed for one week before the treatment with the linear v6 14mer, the cyclic v6 8mer as well as the control peptide (rat v6 14mer) was started. All peptides were injected three times per week at a concentration of 0.2, 2 and 10 μg per injection for 3 weeks. At the end of the treatment animals were sacrificed.\nA comparison of different CD44v6 peptide derivatives was performed in animals bearing a orthotopic L3.6p1 tumor. 10 groups of 5 animals each received a dose of 20 μg peptide per injection three times per week for 3 weeks with the compounds listed in Table 4. Three weeks after starting the treatment the animals were sacrificed and analyzed for macroscopic metastases and tumor volume."}, "Met": {"system": "Met", "conditions": "Matzke et al., Cancer Res. (2005), cited from earlier work"}, "[3]": {"system": "HGF induced activation of the receptor tyrosine kinase Met and ERK", "assay": "HGF-induced activation of Met and ERK in BSp73ASs6 cells (western blot)", "assay_type": "cell-based, rat", "conditions": "HGF 10 ng/ml, peptide added 10 min before induction", "method": "(§1) Serum-starved cells (24 hours) were induced with the growth factor HGF (10 ng/mL) at 37° C. for 5 minutes. Where indicated, the cells were treated with peptides (100 ng/ml) prior to induction at 37° C. for 10 minutes (100 ng/mL CD44v6 peptide or control peptide). Following the induction with HGF, cells were washed with ice-cold phosphate-buffered saline (PBS). To detect activated Met and Erk, cells were lysed in sodium dodecyl sulfate (SDS)-sample buffer containing 100 mM dithiothreitol (DTT), boiled and subjected to western blot analysis using antibodies against phospho-Met and ERK. The loading controls were performed on the same blot after stripping (62.5 mM Tris, pH 6.8, 2% SDS, 0.8% DTT) by probing with the Met respectively ERK antibody. Blots were stained using the enhanced chemiluminescence system (Thermo Fisher Scientific, Schwerte, Germany). Bands in western blot analysis were quantified with the program Image J (National Institutes of Health).\nThe PEG-control peptide and PEG-rat CD44v6 peptide were compared for their ability to block HGF induced activation of the receptor tyrosine kinase Met and ERK. […]\nActivation of ERK and Met was determined by standard SDS and Western Blotting techniques using a phospho-Met and phospho-Erk specific antibody (phospho-Met clone D16 cell signaling, phospho-Erk p42/44 cell signaling)"}, "[4]": {"system": "Met activation and downstream signaling to ERK", "assay": "HGF-induced activation of Met and ERK in L3.6p1 cells (western blot)", "assay_type": "cell-based, human", "conditions": "HGF 10 ng/ml", "method": "as §1\nTo expand the studies to human pancreatic tumors, the highly metastatic human pancreatic carcinoma cells L3.6p1 (Bruns, et al. Neoplasia (1999), 1(1):50-62) were investigated. These cells originate from the […] cells that have been passaged several times in the liver and the pancreas, a step that rendered them more and more metastatic. It was confirmed that Met is dependent on CD44v6 for its activation and signaling in these cells (FIG. 4A). The L3.6p1 cells were treated with HGF in the presence or absence of a human v6 peptide of SEQ ID NO: 2 or SEQ ID NO:6 and Met activation and downstream signaling to ERK was measured."}, "L3.6p1 tumors": {"system": "L3.6p1 tumors", "assay": "In vivo and ex vivo imaging with Pearl Imager of mice bearing L3.6p1 tumors", "set-up": "species or system mouse", "method": "In vivo imaging of the mice with the L3.6p1 tumors was performed using the Pearl™ Imager (LI-COR Biosciences, Bad Homburg, Germany) The system uses two lasers (685 and 785 nm) for excitation and a charge-coupled device detector for signal detection. The laser excitation enables a deep tissue penetration. With the near-infrared detection a high sensitivity due to the reduced tissue auto-fluorescence is achieved. In order to standardize the images we made use of the Pearl Cam Software. The animals were fed with chlorophyll-reduced food to reduce the fluorescence background one week before imaging (Regime 210, safe-diets, Augy, France). Prior to imaging the mice were anesthetized with 2.0% isoflurane. Animals were placed on the heated plate of the imager and continuous delivery of isoflurane was achieved through a nose cone in the imaging drawer. Images were captured at white light, 700 and 800 nm Animals were imaged prior to i.v. peptide injection and 24 h after injection with either DY681-labeled human v6 peptide or DY681-labeled rat v6 peptide as control Immediately after each imaging session animals were killed, tumor, liver and spleen isolated and scanned ex vivo at white light, 700 and 800 nm."}, "L3.6p1 cells": {"system": "L3.6p1 cells", "assay": "Staining of L3.6p1 cells with DY681-labeled peptides", "assay_type": "binding, human", "conditions": "DY681-labeled peptide", "method": "(§2) ASs6 or L3.6p1 cells were seeded at 5,000 cells/well of a Lab-Tek® Chamber Slide™ (Nunc, Napierville, Ill., USA). On the following day the cells were washed with cold PBS and fixed with 4% Formalin for 30 min at RT. Unspecific binding was blocked with 1% BSA in PBS for 1 hour at RT. The cells were incubated for 1 hour with the DY681-labeled peptides. After three washing steps with PBS the cover slips were mounted with Fluorescence Mounting Medium (Dako, Glostrup, Denmark) and the immunofluorescence was measured by a laser scanning confocal microscope Leica TCS2 SP2 (Exton, Pa., USA) and processed using Leica confocal software. A 20× objective was used for imaging."}, "BSp73ASs6 cells": {"system": "BSp73ASs6 cells", "assay": "Staining of fixed BSp73ASs6 cells with DY681-labeled peptides", "assay_type": "binding, rat", "conditions": "DY681-labeled peptide, one hour", "method": "as §2"}, "BSp73ASs6 tumors": {"system": "BSp73ASs6 tumors", "conditions": "rat, iv", "quoted_text": "In vivo imaging of the subcutaneously grown BSp73ASs6 tumors in BD10 or BDX rats was performed using the near infrared fluorescence (NIRF)-imaging system Optix MX2 (ART, Montreal, Canada) as described earlier (Napp et al., Int J Cancer (2010), 127:1958-1974). To avoid autofluorescence of fur, rats were shaved around the tumor prior to imaging. Subsequently, animals were anesthetized using 2% isoflurane and gently fixed on the devices' heated plate for the entire time of data acquisition. To reduce fluorescence background, rats were fed with chlorophyll-reduced food (Provimi Kliba AG, Kaiseraugst, Switzerland) for one week prior NIRF imaging. All in vivo analyses were preceded by native scans of animals without any injection of the fluorescent probe. For in vivo analysis, rats were injected with 200 DY681-labeled rat v6 11mer peptide or the human v6 11mer peptide via the tail vein. […]\nDY681 fluorescence was measured using excitation at 670 nm in combination with a 700 nm long-pass emission filter. […] Data sets were analyzed with OptiView (ART).\nFor in vivo experiments, BSp73ASs6 cells were injected subcutaneously into syngeneic rats. […] The accumulation of the fluorescence was measured in the tumor region by Optix MX2 at the indicated time points. […] Then, in vivo binding kinetics of the Dy681-labeled v6 peptides to the subcutaneous tumors were determined."}}, "note": "Read-outs that look alike come from different tables or passages of the source. No end group written: not given here."}
{"substance": "cy[KGNRWHEG] (also: cyclic, ring type not given here) [cycl. 8 mer]", "values": [{"measurement": "size / growth of the primary tumor", "setting": "[1]; listed as cyclic 8mer", "result": "reduces growth of the primary tumor"}, {"measurement": "size / growth of the primary tumor", "setting": "[1]; listed as cyclic v6 8mer", "result": "drastic effect on growth of the primary tumor"}, {"measurement": "metastasis formation (liver)", "setting": "[2]; 2 μg per injection i.p. three times per week", "result": "blocked metastatic spreading at 2 and 20 μg per injection very efficiently"}, {"measurement": "outgrowth / size of the primary tumor", "setting": "[2]; 20 μg per injection i.p. three times per week for three weeks, start one week after implantation", "result": "strongest reduction of tumor size"}, {"measurement": "metastasis formation (liver)", "setting": "[2]; 20 μg per injection i.p. three times per week, start one week after implantation, listed as cyclic 8mer", "result": "complete inhibition of metastasis"}, {"measurement": "metastasis formation (liver)", "setting": "[2]; 20 μg per injection i.p. three times per week, start one week after implantation, listed as cyclic v6 8mer", "result": "blocked metastatic spreading at 2 and 20 μg per injection very efficiently"}]}
{"substance": "A-R-W-H-A (ARWHA) [A-R-W-H-A (SEQ ID NO: 3)]", "values": [{"measurement": "inhibition of CD44v6 mediated activation of Met", "setting": "Met", "result": "capable of abrogating Met activation"}, {"measurement": "inhibition of CD44v6 mediated activation of Met", "setting": "Met; listed as SEQ ID NO: 3", "result": "still active in inhibiting CD44v6 mediated activation of Met"}]}
{"substance": "WFQNGWQGKNP (also: DY681 dye, position not given here) [DY681 mouse v6 peptide, mouse 11mer labeled with the fluorescent dye DY681, control, reference compound]", "values": [{"measurement": "inhibition of HGF-induced activation of Met and Erk", "setting": "[3]", "result": "but not the mouse peptide inhibited Met activation"}]}
{"substance": "WFGNRWHEGYR (also: DY681 dye, position not given here) [DY681 human v6 peptide, human 11mer labeled with the fluorescent dye DY681]", "values": [{"measurement": "inhibition of HGF-induced activation (phosphorylation) of Met and ERK", "setting": "[4]", "result": "inhibited Met activation in L3.6p1 cells"}, {"measurement": "fluorescence in the tumor in vivo", "setting": "L3.6p1 tumors; one i.v. injection of 20 μg, 24 h after injection", "result": "accumulated specifically in the tumor"}, {"measurement": "ex vivo fluorescence in primary tumors, livers and spleens", "setting": "L3.6p1 tumors; organs excised 24 h after injection", "result": "binding not only to primary tumors but also to areas of the liver"}, {"measurement": "binding to L3.6p1 cells in cell culture", "setting": "L3.6p1 cells", "result": "bound to these cells in cell culture"}]}
{"substance": "WFENEWQGKNP (also: DY681 dye, position not given here) [DY681 rat v6 peptide]", "values": [{"measurement": "binding to BSp73ASs6 cells in tissue culture", "setting": "BSp73ASs6 cells", "result": "bound to BSp73ASs6 cells in tissue culture"}, {"measurement": "inhibition of HGF-induced activation of Met and Erk", "setting": "[3]", "result": "inhibited Met activation"}, {"measurement": "time of maximum fluorescence intensity over the tumor area", "setting": "BSp73ASs6 tumors; in vivo", "result": 1, "unit": "days"}, {"measurement": "duration of high fluorescence intensity over the tumor area in vivo", "setting": "BSp73ASs6 tumors", "result": "at least 2 days"}]}
